Experimental findings from patent EP0478101B1, “Therapeutic use of peptides having thrombospondin-like activity” (W.R. Grace & Co.-Conn., priority 1990, dated 1992) are described below.

Positions of bridges follow the written chain, without caps; N, C: chain ends. Residues, ends and D or L forms follow the SMILES beside them. No end group written: not given here.

Assay in all cases: Cell adhesion to peptide-coated wells compared with thrombospondin
Assay type in all cases: cell-based
What all share (conditions): two micrograms of peptide dried on well, 200,000 cells per well, 30 minutes at 37°C, relative to thrombospondin

In assay [1] the test system is A549 Human Lung Adenocarcinoma. The method, then: (§1) In this example a series of peptides were tested to determine the abilities of the peptides to bind various cells as compared to thrombospondin. It is believed that thrombospondin acts in metastasis through its adhesive properties. An assay was developed, generally in accordance with the disclosure of Tuszynski et al. (Anal. Bio. (1990) 184:189-91) which evaluates the ability of cells to adhere to the thrombospondin fragments or analogs of the invention. In this assay, thrombospondin (purified by the method of Tuszynski et al., J. Biol. Chem. (1985) 260:12240-5) served as a positive control, bovine serum albumin (BSA) (Sigma Chemical Co.) and the peptides ANKHYF and VCTGSC and TCVCGS served as negative controls. The cell types evaluated were B16F10 mouse melanoma cells, A549 human lung adrenocarcinoma cells, bovine aortic smooth muscle cells, and rabbit smooth muscle cells.
(§2) Thrombospondin analogs of the invention were synthesized as described in Examples 1-4. Two micrograms of peptide or control proteins were air dried overnight on the wells of a 96-well microtiter plate. Wells were then washed with HEPES-buffered saline and blocked for 1 hour with 1% fatty acid free BSA in HEPES-buffered saline.
(§3) The various cells were grown and harvested during log phase of growth using standard procedures. The harvested cells were washed two times in serum-free Dulbecco's minimum essential medium (DMEM) (Flow Laboratories) and suspended in HEPES-buffered saline, containing 5 mM glucose and 100 µM MgCl2 at a final concentration of […]. Of the cell suspension 200,000 cells per well was added to each well of the microtiter dish containing the various ligands and the dish incubated at 37°C in a CO2 incubator for 30 minutes. Nonadherent cells were removed by aspiration and the wells washed three times with 200 µl of PBS. The total cell-associated protein was determined by dissolving the attached cells directly in the microtiter wells with 200 µl of the Pierce BCA working solution (Pierce Chem. Co. Booklet No. 23225 (1987)). The plate was covered with an adhesive mylar sheet (Flow Labs) and incubated at 60°C for 30 minutes. Plates were allowed to cool to room temperature, cover sheets were removed, and the absorbance of each well was determined at 562 nm with a microtiter plate reader (Biotek, Burlington, Vermont.) Absorbances were converted to number of adherent cells by means of an empirically determined conversion factor.

Another assay concerns B16-F10 Mouse Melanoma. The method, then:
as §1, §2, §3

The subject of assay [2] is Bovine Aortic Endothelia 1 Cells. The method, then: [Worded in the source for another cell line; this cell line is reported under the same test.] as §1, §2, §3
The next assay deals with Rabbit Smooth Muscle. The method, then: as §1, §2, §3

Consider `CC(C)[C@H](NC(=O)[C@H](CCCNC(=N)N)NC(=O)[C@@H](N)CS)C(=O)N[C@H](C(=O)N[C@@H](CS)C(=O)NCC(=O)O)[C@@H](C)O` [CRVTCG (SEQ ID NO:5), CRVTCG] (H-CRVTCG-OH), for which the “Percent of TSP-adherent Cells” value in assay [1] is on record as 79%; in the assay on B16-F10 Mouse Melanoma, 92%; in assay [2] it was 80%; in the assay with Rabbit Smooth Muscle it was 82%.
The corresponding values for `C[C@@H](O)[C@H](NC(=O)[C@H](CO)NC(=O)[C@@H](N)CS)C(=O)N[C@@H](CO)C(=O)N[C@@H](CS)C(=O)NCC(=O)O` [CSTSCG (SEQ ID NO:4), CSTSCG] (H-CSTSCG-OH) are 23%, 37%, 39% and 22%.
For the compound `C[C@@H](O)[C@H](NC(=O)[C@H](CO)NC(=O)[C@@H](N)CS)C(=O)N[C@@H](CO)C(=O)N[C@@H](CS)C(=O)N[C@@H](CCCNC(=N)N)C(=O)O` [CSTSCR (SEQ ID NO:3), CSTSCR] (H-CSTSCR-OH), the “Percent of TSP-adherent Cells” value in assay [1] was found to be 104%; in the assay on B16-F10 Mouse Melanoma, 39%; in assay [2], 65%; in the assay on Rabbit Smooth Muscle, 82%.
For the compound `CC(C)[C@H](NC(=O)[C@H](CO)NC(=O)[C@@H](N)CS)C(=O)N[C@H](C(=O)N[C@@H](CS)C(=O)NCC(=O)O)[C@@H](C)O` [CSVTCG (SEQ ID NO:1), CSVTCG] (H-CSVTCG-OH), the “Percent of TSP-adherent Cells” value stood at 29% in assay [1], 40% in the assay with B16-F10 Mouse Melanoma, 49% in assay [2] and 44% in the assay with Rabbit Smooth Muscle.
Take `CC(C)[C@H](NC(=O)[C@H](CO)NC(=O)[C@@H](N)CS)C(=O)N[C@H](C(=O)N[C@@H](CS)C(=O)N[C@@H](CCCNC(=N)N)C(=O)O)[C@@H](C)O` [CSVTCR (SEQ ID NO:2), CSVTCR] (H-CSVTCR-OH): the “Percent of TSP-adherent Cells” value in assay [1] came out at 90%; in the assay with B16-F10 Mouse Melanoma, 92%; in assay [2], 99%; in the assay with Rabbit Smooth Muscle, 159%.
The corresponding values for `CC(C)[C@@H]1NC(=O)[C@H](CO)NC(=O)[C@@H](N)CSSC[C@@H](C(=O)NCC(=O)O)NC(=O)[C@H]([C@@H](C)O)NC1=O` [Cyclic CSVTCG (SEQ ID NO:1), cyclic CSVTCG-Acid] (H-CSVTCG-OH; disulfide 1-5) are 29%, 30%, 25% and 43%.
For `CC(C)[C@H](NC(=O)[C@H](CS)NC(=O)[C@@H](N)[C@@H](C)O)C(=O)N[C@@H](CS)C(=O)NCC(=O)N[C@@H](CO)C(=O)O` [TCVCGS, reference compound] (H-TCVCGS-OH) the same measures were 10%, 10%, 6% and 8%.
Regarding `CC(C)[C@H](N)C(=O)N[C@@H](CS)C(=O)N[C@H](C(=O)NCC(=O)N[C@@H](CO)C(=O)N[C@@H](CS)C(=O)O)[C@@H](C)O` [VCTGSC, reference compound] (H-VCTGSC-OH), the “Percent of TSP-adherent Cells” value in assay [1] is 8%; in the assay with B16-F10 Mouse Melanoma, 2%; in assay [2] it was 3%; in the assay with Rabbit Smooth Muscle, 17%.
The corresponding values for ANKHYF [ANKHYF, reference compound] are 10%, 8%, 0% and 17%.
Regarding ASVTAR [ASVTAR (SEQ ID NO:7), ASVTAR], the “Percent of TSP-adherent Cells” value in the assay with B16-F10 Mouse Melanoma stood at 39%.
For “Blocked CSVTCG [Blocked CSVTCG (SEQ ID NO:1)]”, the “Percent of TSP-adherent Cells” value was 44% in assay [1], 32% with B16-F10 Mouse Melanoma, 22% in assay [2] and 46% with Rabbit Smooth Muscle.
